Measured values published in patent publication US20240239806A1, “COMPOUNDS, COMPOSITIONS AND METHODS OF TREATING DISORDERS” (Chengdu Anticancer Bioscience, Ltd., priority 2021, published 2024).
Where two headings read alike, the source gives them in different places.

Tested on: RPEMYC^H2B-GFP cells
Experiment: Phenotypic screening assay (mitotic arrest, polyploidy)
Assay type: cell-based
Conditions: 1 nM to 30 μM; for IC50: read-out: Proliferative arrest (>50%)
Procedure: We have previously developed a mechanism-informed phenotypic screening assay to identify novel antimitotic agents. Equipped with a prior understanding of the versatile functions of the chromosomal passenger protein (CPP) complex in orchestrating karyokinesis and cytokinesis, the screening assay is to score for phenotypes typically seen when the CPP complex is disabled. Specifically, the parameters for a positive hit are a temporary elevation of mitotic index (MI) at 24 hours of drug treatment and an accumulation of polyploid cells at 48 hours of drug treatment, indicative of mitotic arrest and cytokinetic failure respectively. These parameters exclude compounds that elicit only a prolonged arrest of cells in mitosis, a phenotype typically provoked by spindle toxins. The screening procedure is briefly summarized here. RPEMYC^H2B-GFP cells engineered to express a Histone 2B-EGFP fusion protein were passaged as batches of 96-well plates, 18-24 hours before exposure to the chemical compounds of the present disclosure at concentrations from 1 nM to 30 μM. At 24, 48 or 72 hours after initiation of treatment, cells were analyzed for either an arrest in mitosis or a change in DNA content by GE IN-Cell Analyzer 2000. As set forth in Table 2 below, a value of greater than or equal to 1 nM and less than or equal to 1.0 μM is marked “A”; a value greater than 1.00 μM and less than or equal to 10.0 μM is marked “B”; a value greater than 10.0 μM and less than or equal to 30.0 μM is marked “C”; and a value greater than 30.0 μM is marked “D.”

[1] = read-out: Min. Effective conc. for Polyploidy (≥5%)

Structure (SMILES) | minimal effective concentration [1] | minimal effective concentration (read-out: Mitotic Arrest (≥5%)) | IC50
COc1cc(Oc2ccnc3ccc(Br)cc23)cc([N+](=O)[O-])c1 [Compound 93, 4-(3-methoxy-5-nitrophenoxy)-6-bromoquinone] | 0.001 to 1 µM | 0.001 to 1 µM | –
COc1cc(Oc2ccnc3ccccc23)cc(C(F)(F)F)c1 [Compound 11] | 1 to 10 µM | 1 to 10 µM | 1000 to 10000 nM
COc1cc2nccc(Oc3cc(Cl)cc(-n4cccn4)c3)c2cc1C(N)=O [Compound 5, 4-(3-chloro-5-(1H-pyrazol-1-yl)phenoxy)-7-methoxyquinoline-6-carboxamide] | 1 to 10 µM | 1 to 10 µM | –
CNC(=O)c1cc(OC)cc(Oc2ccnc3ccc(Br)cc23)c1 [Compound 72, 3-((6-Bromoquinolin-4-yl)oxy)-5-methoxy-N-methylbenzamide] | 0.001 to 1 µM | 0.001 to 1 µM | 1 to 1000 nM
COc1cc(Oc2ccnc3ccccc23)cc(-c2nc(C)no2)c1 [Compound 13, 5-(3-methoxy-5-(quinolin-4-yloxy)phenyl)-3-methyl-oxadiazole] | 0.001 to 1 µM | 0.001 to 1 µM | 1 to 1000 nM
COc1cc(Oc2ccnc3ccccc23)cc(C(=O)O)c1 [Compound 9, 3-methoxy-5-(quinolin-4-yloxy) benzoic add] | > 30 µM | > 30 µM | > 30000 nM
CNC(=O)c1cc2c(Oc3cc(OC)cc(-n4cccn4)c3)ccnc2cc1OC [Compound 44, 7-Methoxy-4-(3-methoxy-5-(1H-pyrazol-1-yl)phenoxy)-N-methylquinoline-6-carboxamide] | 1 to 10 µM | 1 to 10 µM | 1000 to 10000 nM
COc1cc(NC(C)=O)cc(Oc2ccnc3ccc(C(=O)N(C)C)cc23)c1 [Compound 58, 4-(3-acetamido-5-methoxyphenoxy)-N, N-dimethylquinoline-6-carboxamide] | 1 to 10 µM | 1 to 10 µM | 1000 to 10000 nM
COc1cc(Oc2ccnc3ccccc23)cc(-n2cnc(C)c2)c1 [Compound 77, 4-(3-Methoxy-5-(4-methyl-1H-imidazol-1-yl)phenoxy)quinoline] | 0.001 to 1 µM | 0.001 to 1 µM | 1 to 1000 nM
CCOc1cc(Oc2ccnc3cc(OC)c(C(N)=O)cc23)cc(-n2cccn2)c1 [Compound 59, 4-(3-ethoxy-5-(1H-pyrazol-1-yl)phenoxy)-7-methoxyquinoline-6-carboxamide] | 0.001 to 1 µM | 0.001 to 1 µM | 1 to 1000 nM
COc1cc(N)cc(Oc2ccnc3ccc(Br)cc23)c1 [Compound 91, 3-((6-bromoquinolin-4-yl)oxy)-5-methoxyaniline] | 0.001 to 1 µM | 0.001 to 1 µM | –
COc1cc(NC(C)=O)cc(Oc2ccnc3cc(OC)c(C(N)=O)cc23)c1 [Compound 31, 4-(3-acetamido-5-methoxyphenoxy)-7-methoxyquinoline-6-carboxamide] | 0.001 to 1 µM | 0.001 to 1 µM | 1 to 1000 nM
COc1cc(Oc2ccnc3cc(OC)c(C(N)=O)cc23)cc(-n2cc(C)cn2)c1 [Compound 84] | 0.001 to 1 µM | 0.001 to 1 µM | –
CNC(=O)c1cc(OC)cc(Oc2ccnc3cc(OC)c(Br)cc23)c1 [Compound 90, 3-((6-bromo-7-methoxyquinolin-4-yl)oxy)-5-methoxy-N-methylbenzamide] | 1 to 10 µM | 1 to 10 µM | –
COc1cc(Oc2ncnc3cc(OC)c(OC)cc23)cc(-n2ccnc2)c1 [Compound 79, 4-(3-(1H-Imidazol-1-yl)-5-methoxyphenoxy)-6,7-dimethoxyquinazoline] | 10 to 30 µM | 10 to 30 µM | 10000 to 30000 nM
COc1cc(Oc2ncnc3ccccc23)cc(-n2cnc(C)c2)c1 [Compound 76, 4-(3-Methoxy-5-(4-methyl-1H-imidazol-1-yl)phenoxy)quinazoline] | 1 to 10 µM | 1 to 10 µM | 1000 to 10000 nM
COc1cc(Oc2ccnc3cc(OC)c(C(N)=O)cc23)cc(-c2nnc(C)o2)c1 [Compound 87, 7-methoxy-4-(3-methoxy-5-(5-methyl-1,3,4-oxadiazol-2-yl)phenoxy)quinoline-6-carboxamide] | 0.001 to 1 µM | 0.001 to 1 µM | –

Structure (SMILES) | minimal effective concentration [1] | minimal effective concentration (read-out: Mitotic Arrest (≥5%)) | IC50
COc1cc(Oc2ccnc3cc(OC)c(C(N)=O)cc23)cc(-n2nc(C)cc2C)c1 [Compound 86, 4-(3-(3,5-dimethyl-1H-pyrazol-1-yl)-5-methoxyphenoxy)-7-methoxyquinoline-6-carboxamide] | 1 to 10 µM | 1 to 10 µM | –
COc1cc(Oc2ccnc3cc(OC)c(C(N)=O)cc23)cc(-c2nc(C)no2)c1 [Compound 64, 7-Methoxy-4-(3-methoxy-5-(3-methyl-1,2,4-oxadiazol-5-yl)phenoxy)quinoline-6-carboxamide] | 0.001 to 1 µM | 0.001 to 1 µM | 1 to 1000 nM
COc1cc(Oc2ccnc3cc(OC)c(C(N)=O)cc23)cc(-c2ncccn2)c1 [Compound 62, 7-Methoxy-4-(3-methoxy-5-(pyridimin-2-yl)phenoxy) quinoline-6-carboxamide] | 0.001 to 1 µM | 0.001 to 1 µM | 1 to 1000 nM
Cc1cc(Oc2ccnc3ccc(C(N)=O)cc23)cc(-n2cccn2)c1 [Compound 1, 4-(3-methyl-5-(1H-pyrazol-1-yl)phenoxy)quinoline-6-carboxamide] | 0.001 to 1 µM | 0.001 to 1 µM | –
COc1cc2nccc(Oc3cc(-n4cccn4)cc(-n4cccn4)c3)c2cc1C(N)=O [Compound 4, 4-(3,5-di(1H-pyrazol-1-yl)phenoxy)-7-methoxyquinoline-6-carboxamide] | 0.001 to 1 µM | 0.001 to 1 µM | –
COc1cc(Oc2ncnc3ccccc23)cc(-n2ccnc2)c1 [Compound 78] | 1 to 10 µM | 1 to 10 µM | 1000 to 10000 nM
CCOc1cc(Oc2ccnc3ccc(Br)cc23)cc(C(=O)NC)c1 [Compound 68] | 0.001 to 1 µM | 0.001 to 1 µM | 1 to 1000 nM
COc1cc(OC)cc(Oc2ccnc3cc(OC)c(Br)cc23)c1 [Compound 89, 6-bromo-4-(3,5-dimethoxyphenoxy)-7-methoxyquinone] | 0.001 to 1 µM | 0.001 to 1 µM | –
COC(=O)c1cc(OC)cc(Oc2ncnc3sccc23)c1 [Compound 41, methyl 3-methoxy-5-(thieno[2,3-d]pyrimidin-4-yloxy)benzoate] | 0.001 to 1 µM | 0.001 to 1 µM | 1 to 1000 nM
CNC(=O)c1ccc2nccc(Oc3cc(NC(C)=O)cc(OC)c3)c2c1 [Compound 53, 4-(3-Acetamido-5-methoxyphenoxy)-N-methylquinoline-6-carboxamide] | 0.001 to 1 µM | 0.001 to 1 µM | 1 to 1000 nM
COc1cc(Oc2ccnc3cc(OC)c(C(N)=O)cc23)cc(O[C@@H]2CCOC2)c1 [Compound 81, (R)-7-methoxy-4-(3-methoxy-5-((tetrahydrofuran-3-yl)oxy)phenoxy)quinoline-6-carboxamide] | 0.001 to 1 µM | 0.001 to 1 µM | –
COc1cc(Oc2ccnc3ccc(C(N)=O)cc23)cc(-n2cccn2)c1 [Compound 61, 4-(3-Methoxy-5-(1H-pyrazol-1-yl)phenoxy) quinolin-6-carbazamide] | 0.001 to 1 µM | 0.001 to 1 µM | 1 to 1000 nM
CNC(=O)c1cc(OC)cc(Oc2ccnc3ccccc23)c1 [Compound 10, 3-methoxy-N-methyl-5-(quinolin-4-yloxy)benzamide] | 1 to 10 µM | 0.001 to 1 µM | 1000 to 10000 nM
COc1cc(Oc2ccnc3ccc(C(N)=O)cc23)cc(O[C@@H]2CCOC2)c1 [Compound 3, (R)-4-(methoxy-5-((tetrahydrofuran-3-yl)oxy)phenoxy)quinoline-6-carboxamide] | 0.001 to 1 µM | 0.001 to 1 µM | –
COc1cc(NC(C)=O)cc(Oc2ccnc3ccc(I)cc23)c1 [Compound 60, N-(3-((6-iodoquinolin-4-yl)oxy)-5-methoxyphenyl) acetamide] | 0.001 to 1 µM | 0.001 to 1 µM | 1 to 1000 nM
COC(=O)c1ccc2nccc(Oc3cc(OC)cc(-n4cccn4)c3)c2c1 [Compound 46, Methyl 4-(3-methoxy-5-(1H-pyrazol-1-yl)phenoxy)quinoline-6-carboxylate] | 0.001 to 1 µM | 0.001 to 1 µM | 1 to 1000 nM
COc1cc(Oc2ccnc3ccc(C(F)(F)F)cc23)cc(-n2cccn2)c1 [Compound 49, 4-(3-Methoxy-5-(1H-pyrazol-1-yl)phenoxy)-6-(trifluoromethyl) quinoline] | 0.001 to 1 µM | 0.001 to 1 µM | 1 to 1000 nM
